Test results reported in patent US20170014469A1, “METHODS OF RE[…] LATENT HUMAN IMMUNODEFICIENCY VIRUS” (priority 2013, published 2017).
Entries after “also recorded” stand apart in the source; their conditions may differ. Where two headings read alike, the source gives them in different places.

Columns and labels:
[1] = tested on: latently HIV-1 infected EF7 and CA5 T cells; settings: PMA stimulation; cited from earlier work
[2] = tested on: latent HIV-1 infection in CA5 T cells; format: cell-based; settings: for HIV-1 reactivation in combination with bryostatin: 24 hour pretreatment with proteasome inhibitor, bryostatin titrated; for HIV-1 reactivation in combination with bryostatin / HIV-1 reactivation in combination with disulfiram: read 24 hours after addition; for HIV-1 reactivation by the proteasome inhibitor by itself: CA5 T cells pretreated 24 hours; for HIV-1 reactivation in combination with disulfiram: 24 hour pretreatment with bortezomib, disulfiram titrated, FIG. 3
Method: (§1) Increased protein-ubiquitination for targeting to the proteasome by the E3 ubiquitin ligase GRAIL is a hallmark of T cell anergy. […] FIG. 2B is a graph showing bortezomib in combination with the activator bryostatin. FIG. 2C is a graph showing bortezomib in combination with the activator prostratin.
CA5 T cells were pretreated for 24 hours with bortezomib. Disulfiram was titrated on control cells or bortezomib pretreated T cells. Reactivation was measured 24 hours after disulfiram addition by determining the percentage of GFP-positive cells using flow cytometric analysis.
CA5 T cells were pretreated for 24 hours with carfilzomib. Bryostatin was titrated on control cells or carfilzomib pretreated T cells. Reactivation was measured 24 hours after bryostatin addition by determining the percentage of GFP-positive cells using flow cytometric analysis.
As mentioned above, T cell anergy has been reported to be associated with a series of changes in the kinase activity profile. A hallmark of T cell anergy is the expression of GRAIL (gene related to anergy in lymphocytes), a trans-membrane RING finger ubiquitin E3 ligase (Anandasabapathy et al., Immunity 18:535-547 (2003)). As other ubiquitin ligases, GRAIL tags proteins for degradation by the proteasome. […] In order to determine this, two FDA-approved proteasome inhibitors, bortezomib and carfilzomib, were tested for their ability to mobilize latent HIV-1 infection, either by themselves, or in combination with potentially therapeutically relevant known HIV-1 reactivating activators, such as bryostatin, prostratin, and disulfiram.

[3] = tested on: latent HIV-1 infection in J2574 reporter T cells; assay: Establishment of latent HIV-1 infection in J2574 reporter T cells after ionomycin pretreatment; format: cell-based; settings: ionomycin pretreatment of J2574 T cells versus untreated control, independent of the level of virus input, FIG. 2A
Description: as §1, with “FIGS. 2A, 2B, and 2C show targeting anergy-related mechanisms alters HIV-1 latency control. […] Increased” for “Increased”
Without being bound by any theory, a working concept derived from the altered cellular phenotype observed in latently HIV-1 infected T cells could be that HIV-1 latency is correlated with the induction of a pseudoanergic state of the host-cell. HIV-1 infection has been reported to be associated with high levels of induced T cell anergy. Exposure to gp120 has been reported to be sufficient to trigger T cell anergy (Bouhdoud et al., Journal of Virology 74:2121-2130 (2000); Dybul et al., J. Immunol. 165:1685-91 (2000); Masci et al., Journal of Leukocyte Biology 74:1117-1124 (2003); and Schols and De Clercq, Journal of Virology 70:4953-4960 (1996)). Also, other retroviruses are reported to induce epigenetic changes in their host cells. Ubiquitin and CDK2 are also known to be involved in T cell anergy (Greenwald et al., Immunity 14:145-155 (2001); and Li et al., Nature Immunology 7:1157-65 (2006)). […]

SMILES: CCCCCCCCCCCCCC(=O)O[C@@H]1[C@@H](C)[C@@]2(O)[C@@H](C=C(CO)C[C@]3(O)C(=O)C(C)=C[C@@H]23)[C@@H]2C(C)(C)[C@]12OC(C)=O [PMA, phorbol 12-myristate 13-acetate]
- reactivation at the population level [1]: > 90%

SMILES: CC(C)C[C@H](NC(=O)[C@H](CCc1ccccc1)NC(=O)CN1CCOCC1)C(=O)N[C@@H](Cc1ccccc1)C(=O)N[C@@H](CC(C)C)C(=O)[C@@]1(C)CO1 [carfilzomib]
- HIV-1 reactivation in combination with bryostatin ([2]; CA5 T cells): trigger HIV-1 reactivation
- HIV-1 reactivation in combination with bryostatin ([2]; CA5 T cells, listed as Carfilzomib): potently interacted
- HIV-1 reactivation by the proteasome inhibitor by itself [2]: triggered HIV-1 reactivation

SMILES: CC(C)C[C@H](NC(=O)[C@H](Cc1ccccc1)NC(=O)c1cnccn1)B(O)O [bortezomib]
- HIV-1 reactivation in combination with prostratin ([2]; 24 hour pretreatment with bortezomib (5 nM), prostratin titrated, CA5 T cells, FIG. 2C): interacted with prostratin
- HIV-1 reactivation in combination with disulfiram ([2]; CA5 T cells): synergistically trigger HIV-1 reactivation
- HIV-1 reactivation in combination with disulfiram ([2]; CA5 T cells, listed as Bortezomib): interacted
- activator concentrations required to trigger full HIV-1 reactivation at the population level ([2]; 24 hour pretreatment with proteasome inhibitor (bortezomib 5 nM), activators bryostatin or prostratin, CA5 T cells): reduces
- HIV-1 reactivation in combination with bryostatin ([2]; CA5 T cells): highly synergistic
- latently infected T cells in which latent HIV-1 infection was mobilized ([2]; bortezomib 5 nM by itself, CA5 T cells, FIG. 2B): ~30%
- HIV-1 reactivation by the proteasome inhibitor by itself [2]: mobilizes latent HIV-1 infection

SMILES: C[C@H](CCC(=O)O)C[C@H](C)C[C@H](C)C(=O)/C=C(\O)[C@H](C)C[C@H](C)C/C=C/[C@@H](C)[C@@H](O)[C@@H](C)[C@@H](O)C[C@@H]1CC[C@@](C)([C@H]2CC[C@@](C)([C@@H](C)O)O2)O1 [ionomycin]
- amount of established stable latent infection events [3]: promotes the establishment of latent HIV-1 infection; also recorded: almost doubled
